Source: US20220251079A1, “BENZO[B][1,8]NAPHTHYRIDINE ACETIC ACID DERIVATIVES AND METHODS OF USE” (STINGTHERA, INC., priority 2019, published 2022)

Columns and labels:
[1] = molecular target: T1, hSTING-R232 (Homo sapiens, UniProt Q86WV6, H232R); test: STING Differential Scanning Fluorimetry (DSF) assay, human; type: binding; conditions: human STING R232-WT, 5 μM protein
T1 construct: recombinant mouse or human STING protein (aa140-379); 6xHis-SUMO elsewhere) (cleaved yes); made in house
How it was run: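 Purified STING C-terminal domain (aa140-379, R232), human or mouse, at 5 μM in 100 mM NaCl, 30 mM HEPES pH 7.5 with SYBR Orange, was heated at 0.5° C./min. Tm came from dF/dT; ΔTm and FC50 were derived from an 11-point 2-fold series from 300 μM, in duplicate.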

[2] = molecular target: T2, human STING protein (140-379) (Homo sapiens, UniProt Q86WV6, H232R); test: Radiometric filtration binding competition assay (WT_FBA_HIS-SUMO-hSWAT); conditions: read-out: WT-hSWAT IC50
T2 construct: 6XHIS-SUMO-hSTING (140-379); made in house; host or cells: BL-21(DE3) E. coli, pET vector
How it was run: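 His-SUMO-tagged STING ligand-binding domain (human 140-379 or mouse 139-328, 0.5 μM) preincubated 30 min with compound (8 points, 2-fold from 300 μM), then competed with a tritiated ligand. Complexes were filtered and counted by scintillation. IC50 from non-linear regression, with Ki extrapolated.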

[3] = molecular target: T3, STING protein (Homo sapiens, UniProt Q86WV6, H232R); test: Cell based reporter assay of IRF activation (THP1-dual-KI R232, IRF luciferase); conditions: THP-1; read-out: THP1-dual-KI R232_IRF(Luciferase)_Activity Maximum measured (%)
T3 construct: host or cells: THP-1 dual reporter cells, TMEM173 modified from HAQ to R232 (THP1-dual-KI R232)
How it was run: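 THP-1 monocytes stably carried an ISG54/5×ISRE firefly luciferase IRF reporter, with TMEM173 knock-in H71R A230G Q293R (R232 variant), and there was no PMA pre-activation. Compounds were tested at 8 points, 2-fold, in duplicate from 150 µM. Cell Titer Glo was applied after supernatant removal.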

T2 sequence (Q86WV6 140-379 H232R): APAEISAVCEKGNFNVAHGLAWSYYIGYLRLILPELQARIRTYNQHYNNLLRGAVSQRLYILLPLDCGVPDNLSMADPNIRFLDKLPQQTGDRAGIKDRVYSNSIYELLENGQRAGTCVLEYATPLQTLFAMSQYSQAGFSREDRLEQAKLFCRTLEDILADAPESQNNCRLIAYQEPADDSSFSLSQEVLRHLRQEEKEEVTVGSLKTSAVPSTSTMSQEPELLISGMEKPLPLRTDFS
T1 sequence (Q86WV6 140-379 H232R): as above
T3 sequence (Q86WV6 whole entry H232R): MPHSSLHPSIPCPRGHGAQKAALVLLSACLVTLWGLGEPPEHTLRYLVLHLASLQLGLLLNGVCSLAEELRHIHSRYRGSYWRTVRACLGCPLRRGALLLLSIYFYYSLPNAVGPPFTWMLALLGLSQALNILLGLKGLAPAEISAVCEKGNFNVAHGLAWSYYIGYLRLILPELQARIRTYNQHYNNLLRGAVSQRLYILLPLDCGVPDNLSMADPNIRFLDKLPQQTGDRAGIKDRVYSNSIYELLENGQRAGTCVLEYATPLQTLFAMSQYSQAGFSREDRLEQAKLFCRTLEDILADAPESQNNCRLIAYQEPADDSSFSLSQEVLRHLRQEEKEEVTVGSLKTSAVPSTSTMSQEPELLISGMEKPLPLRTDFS

How did the “WT_DSF_hSWAT Tm Shift (° C.)” value [1] turn out when CCc1ccc2c(=O)c3ccc(Cl)c(N(C)C)c3n(CC(=O)O)c2n1 [Compound 8] was run?
Its value is “D (“D” > 7° C.)”.

What about the IC50 [2] of the same molecule?
Its IC50 is less than 20 µM.

What about the Emax [3] of the same molecule?
Its Emax is greater than 50%.

With CSc1c(Cl)ccc2c(=O)c3ccc(C4(C)CC4)nc3n(CC(=O)O)c12 [Compound 68, sodium 2-(8-chloro-2-(1-methylcyclopropyl)-9-(methylthio)-5-oxobenzo[b][1,8]naphthyridin-10(5H)-yl)acetate] as the molecule, how does the “WT_DSF_hSWAT Tm Shift (° C.)” value [1] read?
The value was “D (“D” > 7° C.)”.

What about the IC50 [2] of the same molecule?
Its IC50 is less than 20 µM.

What about the Emax [3] of the same molecule?
The Emax was greater than 50%.

How did the “WT_DSF_hSWAT Tm Shift (° C.)” value [1] turn out when Cc1ccc2c(=O)c3ccc(Cl)c(N(C)C)c3n(CC(=O)NC#N)c2n1 [Compound 11] was run?
The value was “B (“B” = 0-2° C.)”.

What about the IC50 [2] of the same molecule?
The IC50 was greater than 300 µM.

And the Emax [3]?
The Emax was less than 5%.

With COCCN(c1ccc2c(=O)c3ccc(Cl)c(SC)c3n(CC(=O)O)c2n1)[C@H]1C[C@@H](OC)C1 [Compound 74, sodium 2-(8-chloro-2-(((1s,3s)-3-methoxycyclobutyl)(2-methoxyethyl)amino)-9-(methylthio)-5-oxobenzo[b][1,8]naphthyridin-10(5H)-yl)acetate] as the molecule, how does the “WT_DSF_hSWAT Tm Shift (° C.)” value [1] read?
The value was “D (“D” > 7° C.)”.

And the IC50 [2]?
Its IC50 is 100 to 300 µM.

What about the Emax [3] of the same molecule?
The Emax was greater than 50%.

Which “WT_DSF_hSWAT Tm Shift (° C.)” value [1] does the source give for CO[C@H]1C[C@@H](N(C)c2ccc3c(=O)c4ccc(C)c(SC)c4n(CC(=O)O)c3n2)C1 [Compound 69, 2-(2-(((1s,3s)-3-methoxycyclobutyl)(methyl)amino)-8-methyl-9-(methylthio)-5-oxobenzo[b][1,8]naphthyridin-10(5H)-yl)acetic acid] here?
The value was “D (“D” > 7° C.)”.

What about the IC50 [2] of the same molecule?
The IC50 was less than 20 µM.

What about the Emax [3] of the same molecule?
The Emax was greater than 50%.

For CCN(c1ccc2c(=O)c3ccc(Cl)c(SC)c3n(CC(=O)O)c2n1)C1COC1 [Compound 30, sodium 2-(8-chloro-2-(ethyl(oxetan-3-yl)amino)-9-(methylthio)-5-oxobenzo[b][1,8]naphthyridin-10(5H)-yl)acetate], which “WT_DSF_hSWAT Tm Shift (° C.)” value [1] is on record?
Its value is “D (“D” > 7° C.)”.

And the IC50 [2]?
The IC50 was less than 20 µM.

What about the Emax [3] of the same molecule?
The Emax was greater than 50%.

For COCCN(c1ccc2c(=O)c3ccc(Cl)c(SC)c3n(CC(=O)O)c2n1)C1CC1 [Compound 28, sodium 2-(8-chloro-2-(cyclopropyl(2-methoxyethyl)amino)-9-(methylthio)-5-oxobenzo[b][1,8]naphthyridin-10(5H)-yl)acetate], which “WT_DSF_hSWAT Tm Shift (° C.)” value [1] is on record?
The value was “D (“D” > 7° C.)”.

And the IC50 [2]?
The IC50 was less than 20 µM.

And the Emax [3]?
The Emax was greater than 50%.

Which results are given for CSc1c(Cl)ccc2c(=O)c3ccc(N(C)c4ccccc4)nc3n(CC(=O)O)c12 [Compound 73, sodium 2-(8-chloro-2-(methyl(phenyl)amino)-9-(methylthio)-5-oxobenzo[b][1,8]naphthyridin-10(5H)-yl)acetate]?
WT_DSF_hSWAT Tm Shift (° C.) [1]: D (“D” > 7° C.); IC50 [2]: < 20 µM; Emax [3]: > 50%

CSc1c(Cl)ccc2c(=O)c3ccc(Nc4ccccc4F)nc3n(CC(=O)O)c12 [Compound 57, sodium 2-(8-chloro-2-((2-fluorophenyl)amino)-9-(methylthio)-5-oxobenzo[b][1,8]naphthyridin-10(5H)-yl)acetate] was tested. Which “WT_DSF_hSWAT Tm Shift (° C.)” value [1] did it give?
The value was “D (“D” > 7° C.)”.

And the IC50 [2]?
The IC50 was less than 20 µM.

And the Emax [3]?
The Emax was greater than 50%.

How did the “WT_DSF_hSWAT Tm Shift (° C.)” value [1] turn out when CSc1c(Cl)ccc2c(=O)c3ccc(N(C)CCS(=O)(=O)C(C)C)nc3n(CC(=O)O)c12 [Compound 35, sodium 2-(8-chloro-2-{methyl[2-(propane-2-sulfonyl)ethyl]amino}-9-(methylsulfanyl)-5-oxobenzo[b]1,8-naphthyridin-10-yl)acetate] was run?
The value was “D (“D” > 7° C.)”.

What about the IC50 [2] of the same molecule?
The IC50 was 20 to 100 µM.

And the Emax [3]?
Its Emax is greater than 50%.

Which results are given for COc1c(Cl)ccc2c(=O)c3ccc(C(C)C)nc3n(CC(=O)O)c12 [Compound 1]?
WT_DSF_hSWAT Tm Shift (° C.) [1]: D (“D” > 7° C.); IC50 [2]: 100 to 300 µM; Emax [3]: > 50%

CSc1c(Cl)ccc2c(=O)c3ccc(N(CC4CC4)CC4CC(F)(F)C4)nc3n(CC(=O)O)c12 [Compound 37, sodium 2-(8-chloro-2-((Cyclopropylmethyl)((3,3-difluorocyclobutyl)methyl)amino)-9-(methylthio)-5-oxobenzo[b][1,8]naphthyridin-10(5H)-yl)acetate] was tested. Which “WT_DSF_hSWAT Tm Shift (° C.)” value [1] did it give?
The value was “D (“D” > 7° C.)”.

What about the IC50 [2] of the same molecule?
The IC50 was 20 to 100 µM.

And the Emax [3]?
Its Emax is greater than 50%.

For CSc1c(Cl)ccc2c(=O)c3ccc(N(C)C4CC5(CCC5)C4)nc3n(CC(=O)O)c12 [Compound 47, sodium 2-(8-chloro-2-(methyl(spiro[3.3]heptan-2-yl)amino)-9-(methylthio)-5-oxobenzo[b][1,8]naphthyridin-10(5H)-yl)acetate], which “WT_DSF_hSWAT Tm Shift (° C.)” value [1] is on record?
Its value is “D (“D” > 7° C.)”.

What about the IC50 [2] of the same molecule?
Its IC50 is less than 20 µM.

What about the Emax [3] of the same molecule?
The Emax was greater than 50%.

How did the “WT_DSF_hSWAT Tm Shift (° C.)” value [1] turn out when CSc1c(C)ccc2c(=O)c3ccc(N(C)C)nc3n(CC(=O)O)c12 [Compound 62, sodium 2-(2-(dimethylamino)-8-methyl-9-(methylthio)-5-oxobenzo[b][1,8]naphthyridin-10(5H)-yl)acetate] was run?
The value was “D (“D” > 7° C.)”.

And the IC50 [2]?
The IC50 was 20 to 100 µM.

What about the Emax [3] of the same molecule?
The Emax was greater than 50%.

For CO[C@H]1C[C@@H](N(C)c2nc3c(cc2Cl)c(=O)c2ccc(Cl)c(SC)c2n3CC(=O)O)C1 [Compound 77, 2-(3,8-dichloro-2-(((1s,3s)-3-methoxycyclobutyl)(methyl)amino)-9-(methylthio)-5-oxobenzo[b][1,8]naphthyridin-10(5H)-yl)acetic acid], which “WT_DSF_hSWAT Tm Shift (° C.)” value [1] is on record?
Its value is “D (“D” > 7° C.)”.

And the IC50 [2]?
Its IC50 is less than 20 µM.

And the Emax [3]?
The Emax was greater than 50%.

Which “WT_DSF_hSWAT Tm Shift (° C.)” value [1] does the source give for Cc1ccc2c(=O)c3c(O)cc(Cl)c(N(C)C)c3n(CC(=O)O)c2n1 [Compound 9] here?
Its value is “C (“C” = 2-7° C.)”.

What about the IC50 [2] of the same molecule?
The IC50 was 100 to 300 µM.

What about the Emax [3] of the same molecule?
The Emax was greater than 50%.

Which “WT_DSF_hSWAT Tm Shift (° C.)” value [1] does the source give for CO[C@H]1C[C@@H](N(C)c2ccc3c(=O)c4ccc(Cl)c(SC)c4n(CC(=O)O)c3n2)C1 (single isomer, unassigned) [Compound 44, 2-(8-chloro-2-(((1s,3s)-3-methoxycyclobutyl) (methyl)amino)-9-(methylthio)-5-oxobenzo[b][1,8]naphthyridin-10(5H)-yl)acetic acid] here?
The value was “D (“D” > 7° C.)”.

What about the IC50 [2] of the same molecule?
The IC50 was 20 to 100 µM.

And the Emax [3]?
Its Emax is greater than 50%.

For CSc1c(Cl)ccc2c(=O)c3ccc(N(C)CC4CC(F)(F)C4)nc3n(CC(=O)O)c12 [Compound 36, Sodium 2-(8-chloro-2-(((3,3-difluorocyclobutyl)methyl)(methyl)amino)-9-(methylthio)-5-oxobenzo[b][1,8]naphthyridin-10(5H)-yl)acetate], which “WT_DSF_hSWAT Tm Shift (° C.)” value [1] is on record?
The value was “D (“D” > 7° C.)”.

And the IC50 [2]?
Its IC50 is 20 to 100 µM.

And the Emax [3]?
The Emax was greater than 50%.

Which results are given for CCOc1c(Cl)ccc2c(=O)c3ccc(N(CCOC)C4CC4)nc3n(CC(=O)O)c12 [Compound 29, sodium 2-(8-chloro-2-(cyclopropyl(2-methoxyethyl)amino)-9-ethoxy-5-oxobenzo[b][1,8]naphthyridin-10(5H)-yl)acetate]?
WT_DSF_hSWAT Tm Shift (° C.) [1]: D (“D” > 7° C.); IC50 [2]: 20 to 100 µM; Emax [3]: > 50%

Which “WT_DSF_hSWAT Tm Shift (° C.)” value [1] does the source give for CCOc1c(Cl)ccc2c(=O)c3ccc(N(C)C)nc3n(CC(=O)O)c12 [Compound 23, sodium 2-(8-chloro-2-(dimethylamino)-9-ethoxy-5-oxobenzo[b][1,8]naphthyridin-10(5H)-yl)acetate] here?
Its value is “C (“C” = 2-7° C.)”.

And the IC50 [2]?
The IC50 was 100 to 300 µM.

And the Emax [3]?
Its Emax is greater than 50%.

How did the “WT_DSF_hSWAT Tm Shift (° C.)” value [1] turn out when CSc1c(Cl)ccc2c(=O)c3ccc(C(C)=O)nc3n(CC(=O)O)c12 [Compound 32, sodium 2-(2-acetyl-8-chloro-9-(methylthio)-5-oxobenzo[b][1,8]naphthyridin-10(5H)-yl)acetate] was run?
The value was “C (“C” = 2-7° C.)”.

And the IC50 [2]?
Its IC50 is 100 to 300 µM.

What about the Emax [3] of the same molecule?
The Emax was greater than 50%.

CSc1ccc2c(=O)c3ccc(C(C)(C)C)nc3n(CC(=O)O)c2c1SC [Compound 13] was tested. Which “WT_DSF_hSWAT Tm Shift (° C.)” value [1] did it give?
Its value is “B (“B” = 0-2° C.)”.

And the IC50 [2]?
The IC50 was greater than 300 µM.

What about the Emax [3] of the same molecule?
Its Emax is greater than 50%.

How did the “WT_DSF_hSWAT Tm Shift (° C.)” value [1] turn out when CCOc1c(Cl)ccc2c(=O)c3ccc(C(C)(C)C#N)nc3n(CC(=O)O)c12 [Compound 25, sodium 2-(8-chloro-2-(2-cyanopropan-2-yl)-9-ethoxy-5-oxobenzo[b][1,8]naphthyridin-10(5H)-yl)acetate] was run?
The value was “D (“D” > 7° C.)”.

What about the IC50 [2] of the same molecule?
The IC50 was 20 to 100 µM.

And the Emax [3]?
Its Emax is greater than 50%.

For CCOc1nc2c(cc1Cl)c(=O)c1ccc(Cl)c(N(C)C)c1n2CC(=O)O [Compound 18, 2-(3,8-dichloro-9-(dimethylamino)-2-ethoxy-5-oxobenzo[b][1,8]naphthyridin-10(5H)-yl) acetic acid], which “WT_DSF_hSWAT Tm Shift (° C.)” value [1] is on record?
The value was “C (“C” = 2-7° C.)”.

And the IC50 [2]?
The IC50 was less than 20 µM.

What about the Emax [3] of the same molecule?
The Emax was greater than 50%.

Which results are given for COC1CC(CN(CC2CC2)c2ccc3c(=O)c4ccc(Cl)c(SC)c4n(CC(=O)O)c3n2)C1 (stereo not drawn) [Compound 40, sodium 2-(8-chloro-2-((cyclopropylmethyl)((3-methoxycyclobutyl)methyl)amino)-9-(methylthio)-5-oxobenzo[b][1,8]naphthyridin-10(5H)-yl)acetate]?
WT_DSF_hSWAT Tm Shift (° C.) [1]: D (“D” > 7° C.); IC50 [2]: 20 to 100 µM; Emax [3]: > 50%
